Some test systems named below: SF-539 CNS; SNB-19 CNS; NCI-H460 lung; HS 578T breast; OVCAR-4 ovarian; RPMI-8226 leukemia; NCI/ADR-RES ovarian; SN12C renal.
Common to all, as to assay: NCI-60 cell line screen, 48 h

These results are taken from PubChem BioAssay (NCI).

“And” between values parts separate entries of the source, which are not always exact repeats. Equal entries are not always repeated.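 Values below derive from 48-hour exposures of cells grown in 96-well plates, with endpoints linearly interpolated between the two concentrations bracketing the appropriate inhibition level. GI50 marks 50% less growth. The concentration for full growth arrest is given as TGI.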 Some results are limits rather than exact numbers.

As for `Cc1c(CN2CCC(Nc3ncnc4sc(CC(F)(F)F)cc34)CC2)ccc2c1cc(C#N)n2Cc1cn[nH]c1`, the GI50 in the test with SF-539 CNS is 7.37 µM and 15 µM; with SNB-19 CNS, 6.75 µM and 6.03 µM; with NCI-H460 lung, 2.19 µM and 2.8 µM; with HS 578T breast, 6.23 µM and 10.1 µM; in the test with OVCAR-4 ovarian it was 2.2 µM and 1.77 µM; in the test on RPMI-8226 leukemia, 0.832 µM and 0.896 µM. Besides, the GI50 in the test with NCI/ADR-RES ovarian was 4.92 µM and 7.36 µM; in the test with SN12C renal, 8.76 µM. Moreover, the TGI in the test on SF-539 CNS is greater than 51.4 µM; with SNB-19 CNS, 28.9 µM; in the test with NCI-H460 lung it was 7.31 µM; in the test with HS 578T breast, greater than 68.3 µM; in the test on OVCAR-4 ovarian it was 22.3 µM; in the test on RPMI-8226 leukemia it was 4.47 µM. Moreover, the TGI is 20.5 µM and > 25.8 µM in the test on NCI/ADR-RES ovarian; 26.4 µM in the test on SN12C renal.

With `C=C1C(=O)O[C@@H]2C[C@@H](C)[C@@H]3[C@@H](OC4OC(COC(C)=O)C(O)C(O)C4O)CC(=O)[C@@]3(C)C[C@H]12` (stereo partly drawn), the TGI in the test on SF-539 CNS is 6.27 µM; with SNB-19 CNS, 45.1 µM; in the test on NCI-H460 lung it was 28.7 µM; in the test with HS 578T breast it was greater than 100 µM; in the test on OVCAR-4 ovarian it was 12.5 µM; in the test on RPMI-8226 leukemia it was 8.53 µM. Moreover, the figures for the TGI in the test with NCI/ADR-RES ovarian and in the test with SN12C renal were 14.5 µM and 3.51 µM, respectively.

`Cc1cc2c(C(N)=O)cccc2n1-c1nc2c(c(NCc3ccccc3)n1)CCCN2`: the GI50 is 0.205 µM with SF-539 CNS; 0.296 µM in the test on SNB-19 CNS; 0.232 µM in the test with NCI-H460 lung; 0.262 µM with HS 578T breast; 0.178 µM in the test on OVCAR-4 ovarian; 0.0401 µM in the test on RPMI-8226 leukemia. In addition, the GI50 with NCI/ADR-RES ovarian is 0.307 µM; in the test on SN12C renal it was 0.134 µM. The TGI with SF-539 CNS is 0.423 µM; with SNB-19 CNS, 0.765 µM; in the test on NCI-H460 lung, 0.661 µM; in the test with HS 578T breast, 0.745 µM; with OVCAR-4 ovarian, 0.396 µM; with RPMI-8226 leukemia it was 0.325 µM. The values for the TGI in the test on NCI/ADR-RES ovarian and in the test with SN12C renal were 1.74 µM and 0.335 µM, respectively.

With `Cc1cc(S(=O)(=O)NC#N)c(S/C(=N\Nc2ccc([N+](=O)[O-])cc2)c2ccccc2)cc1Cl`, the GI50 was 38 µM in the test on SNB-19 CNS; 18.7 µM in the test with NCI-H460 lung; 16.2 µM with HS 578T breast; 13.9 µM in the test on OVCAR-4 ovarian; 19.5 µM in the test with RPMI-8226 leukemia; 20.9 µM in the test on SN12C renal. Besides, the TGI in the test with SNB-19 CNS was greater than 100 µM; in the test with NCI-H460 lung it was 36.3 µM; with HS 578T breast, 43.2 µM; with OVCAR-4 ovarian it was 31.8 µM; in the test on RPMI-8226 leukemia, 61.8 µM; in the test with SN12C renal it was 52.3 µM.

`c1cncc(C(Nc2cccc3cccnc23)Nc2cccc3cccnc23)c1`: the TGI in the test with SF-539 CNS, in the test with SNB-19 CNS, in the test with NCI-H460 lung, with HS 578T breast, in the test with RPMI-8226 leukemia and in the test with NCI/ADR-RES ovarian was greater than 100 µM each time. In addition, in the test with SN12C renal, the TGI was greater than 100 µM.

`CCS(=O)(=O)c1ccc(OC)c(Nc2nccc(N(C)c3ccc4c(C)[nH]nc4c3)n2)c1`: the GI50 was 4.17 µM with SF-539 CNS; 9.74 µM with SNB-19 CNS; 8.67 µM in the test with NCI-H460 lung; 2.69 µM in the test with HS 578T breast; 5.66 µM with OVCAR-4 ovarian; 8.35 µM with RPMI-8226 leukemia. The GI50 with NCI/ADR-RES ovarian was 6.32 µM; with SN12C renal, 5.23 µM. Moreover, the TGI in the test with SF-539 CNS is 9.86 µM; in the test on SNB-19 CNS, greater than 25 µM; in the test with NCI-H460 lung it was greater than 25 µM; in the test on HS 578T breast, 14.4 µM; in the test with OVCAR-4 ovarian, greater than 25 µM; in the test on RPMI-8226 leukemia, greater than 25 µM. The TGI was greater than 19.4 µM with NCI/ADR-RES ovarian and greater than 25 µM in the test with SN12C renal.

As for `Clc1cc(Cl)cc(N2N=C(c3cccc(Nc4ccncc4)c3)CC2c2ccc(Br)cc2)c1` (stereo not drawn), the GI50 with SF-539 CNS is 1.7 µM; in the test with SNB-19 CNS, 1.63 µM; in the test with NCI-H460 lung, 1.81 µM; with OVCAR-4 ovarian, 1.6 µM; in the test with NCI/ADR-RES ovarian, 1.91 µM; with SN12C renal, 1.67 µM. Also, the TGI was found to be 3.12 µM in the test with SF-539 CNS; 3.16 µM in the test on SNB-19 CNS; 3.51 µM with NCI-H460 lung; 2.96 µM in the test on OVCAR-4 ovarian; 3.86 µM with NCI/ADR-RES ovarian; 3.11 µM in the test on SN12C renal.

With `CCc1oc2ccccc2c1C(=O)c1cc(Br)c(O)c(Br)c1`, the TGI was 32.9 µM in the test with SF-539 CNS; greater than 100 µM with SNB-19 CNS; 34.2 µM with NCI-H460 lung; 59 µM in the test on HS 578T breast; greater than 100 µM with OVCAR-4 ovarian; 75.5 µM with RPMI-8226 leukemia. Besides, the TGI in the test on NCI/ADR-RES ovarian came to 87.2 µM; with SN12C renal, 67.3 µM.

Consider `O=C(N/N=C/c1ccc(O)cc1O)c1ccc(Nc2ccnc(C(F)(F)F)c2)cc1`, for which the GI50 with SF-539 CNS was 6.32 µM; with SNB-19 CNS it was 14 µM; in the test on NCI-H460 lung, greater than 100 µM; in the test with HS 578T breast it was 4.4 µM; with RPMI-8226 leukemia, greater than 100 µM; with NCI/ADR-RES ovarian it was greater than 100 µM. Besides, the GI50 in the test on SN12C renal was 24.4 µM. Further, the TGI in the test with SF-539 CNS was 24.5 µM; in the test with SNB-19 CNS, greater than 56.5 µM; with NCI-H460 lung, greater than 100 µM; in the test with HS 578T breast, 29 µM; in the test on OVCAR-4 ovarian, greater than 100 µM; with RPMI-8226 leukemia, greater than 100 µM. Moreover, the TGI with NCI/ADR-RES ovarian and in the test with SN12C renal was greater than 100 µM each time.

Take `Cc1nn2c(/C=C3/C(=O)Nc4ccccc43)c(-c3ccc(Cl)cc3)nc2s1`: the GI50 in the test with SF-539 CNS is 0.0174 µM; in the test on SNB-19 CNS, 10.5 µM; in the test on NCI-H460 lung, 22.1 µM; with HS 578T breast it was 27.7 µM; in the test with RPMI-8226 leukemia it was 4.37 µM. Also, the TGI in the test on SF-539 CNS is 1.27 µM; in the test on SNB-19 CNS it was 32.6 µM; in the test on NCI-H460 lung, greater than 50 µM; in the test with HS 578T breast, greater than 50 µM; in the test on RPMI-8226 leukemia, greater than 50 µM.

Consider `O=C(Nc1ccc2oc(=O)c(C(=O)O)cc2c1)Oc1ccccc1`, for which the TGI in the test with SF-539 CNS, in the test with SNB-19 CNS, in the test with NCI-H460 lung, with HS 578T breast, with OVCAR-4 ovarian and in the test on RPMI-8226 leukemia was greater than 100 µM each time. In addition, the TGI with NCI/ADR-RES ovarian and in the test with SN12C renal was greater than 100 µM in each case.
